For one experiment, the target named is T1, human TLR7 (Homo sapiens, UniProt Q9NYK1).
T1 construct: host or cells: HEK-Blue TLR7 cells (engineered human embryonic kidney cells)
T1 sequence (Q9NYK1 27-1049): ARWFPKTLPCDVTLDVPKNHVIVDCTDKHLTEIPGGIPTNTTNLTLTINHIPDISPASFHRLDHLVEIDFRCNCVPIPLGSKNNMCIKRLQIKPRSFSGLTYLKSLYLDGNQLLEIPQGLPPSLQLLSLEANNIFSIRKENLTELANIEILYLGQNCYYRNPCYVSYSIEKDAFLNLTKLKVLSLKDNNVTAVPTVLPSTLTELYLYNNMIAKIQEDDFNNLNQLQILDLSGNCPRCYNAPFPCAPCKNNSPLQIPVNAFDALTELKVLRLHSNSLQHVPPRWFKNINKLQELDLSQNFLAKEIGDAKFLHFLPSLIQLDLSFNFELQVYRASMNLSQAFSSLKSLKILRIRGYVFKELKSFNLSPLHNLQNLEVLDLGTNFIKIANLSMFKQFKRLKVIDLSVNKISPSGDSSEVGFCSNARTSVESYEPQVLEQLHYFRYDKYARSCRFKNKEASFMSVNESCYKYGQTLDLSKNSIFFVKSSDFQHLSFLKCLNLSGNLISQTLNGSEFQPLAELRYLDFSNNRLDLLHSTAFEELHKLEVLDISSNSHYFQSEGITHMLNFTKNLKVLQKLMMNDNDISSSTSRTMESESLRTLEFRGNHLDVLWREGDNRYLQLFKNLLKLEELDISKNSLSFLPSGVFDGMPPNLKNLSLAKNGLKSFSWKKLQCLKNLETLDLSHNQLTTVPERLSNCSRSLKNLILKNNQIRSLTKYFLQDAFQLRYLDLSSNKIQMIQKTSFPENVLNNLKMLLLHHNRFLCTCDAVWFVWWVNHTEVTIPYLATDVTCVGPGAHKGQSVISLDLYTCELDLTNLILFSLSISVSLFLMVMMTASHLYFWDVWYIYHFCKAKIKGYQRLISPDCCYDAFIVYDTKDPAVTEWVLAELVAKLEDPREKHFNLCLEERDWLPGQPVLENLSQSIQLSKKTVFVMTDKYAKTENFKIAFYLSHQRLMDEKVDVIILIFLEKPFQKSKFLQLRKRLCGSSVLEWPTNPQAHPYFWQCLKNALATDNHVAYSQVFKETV
The experiment in a line: Human TLR7 agonist activity assay (hTLR7 reporter, HEK-Blue TLR7 cells, SEAP). Type of experiment: cell-based. The following applies: HEK-Blue TLR7 cells with SEAP reporter, 18 h treatment; average where assay performed multiple times. The procedure: This procedure describes a method for assaying human TLR7 (hTLR7) agonist activity of the compounds disclosed in this specification.
HEK-Blue™ TLR7 cells were added to each well of a 384-well tissue-culture plate (15,000 cells per well) and incubated 16-18 h at 37° C., 5% CO2. Compounds (100 nl) were dispensed into wells containing the HEK-Blue™ TLR cells and the treated cells were incubated at 37° C., 5% CO2. After 18 h treatment ten microliters of freshly-prepared Quanti-Blue™ reagent (Invivogen) was added to each well, incubated for 30 min (37° C., 5% CO2) and SEAP levels measured using an Envision plate reader (OD=620 nm). The half maximal effective concentration values (EC50; compound concentration which induced a response halfway between the assay baseline and maximum) were calculated.

In a further experiment the test system is CD69. The experiment in a line: Induction of CD69 in human whole blood (hWB). Type of experiment: cell-based. The following applies: 17 hrs at 37 C, CD69 surface staining, 100% set to 1 uM resiquimod, average where performed multiple times. The procedure: The induction of Type I interferon (IFN) MX-1 genes and the B-cell activation marker CD69 are downstream events that occur upon activation of the TLR7 pathway. The following is a human whole blood assay that measures their induction in response to a TLR7 agonist.
Heparinized human whole blood was harvested from human subjects and treated with test TLR7 agonist compounds at 1 mM. The blood was diluted with RPMI 1640 media and Echo was used to predot 10 nL per well giving a final concentration of 1 uM (10 nL in 10 uL of blood). After mixing on a shaker for 30 sec, the plates were covered and placed in a 37° C. chamber for o/n=17 hrs. Fixing/lysis buffer was prepared (5×→1× in H2O, warm at 37° C.; Cat #BD 558049) and kept the perm buffer (on ice) for later use.
For surface markers staining (CD69): prepared surface Abs: 0.045 ul hCD14-FITC (ThermoFisher Cat #MHCD1401)+0.6 ul hCD19-ef450 (ThermoFisher Cat #48-0198-42)+1.5 ul hCD69-PE (cat #BD555531)+0.855 ul FACS buffer. Added 3 ul/well, spin1000 rpm for 1 min and mixed on shaker for 30 sec, put on ice for 30 mins. Stop stimulation after 30 min with 70 uL of prewarmed 1× fix/lysis buffer and use Feliex mate to resuspend (15 times, change tips for each plate) and incubate at 37C for 10 min.
Centrifuge at 2000 rpm for 5 min aspirate with HCS plate washer, mix on shaker for 30 sec and then wash with 70 uL in dPBS and pelleted 2× s (2000 rpm for 5 min) and 50 ul wash in FACS buffer pelleted 1×s(2000 rpm for 5 min). Mix on shaker for 30 sec. For Intracellular markers staining (MX-1): Add 50 ul of BD Perm buffer III and mix on shaker for 30 sec. Incubate on ice for 30 min (in the dark). Wash with 50 uL of FACS buffer 2× (spin @2300 rpm×5 min after perm) followed by mixing on shaker for 30 sec. Resuspended in 20 ul of FACS buffer containing MX1 antibody ( )(4812)-Alexa 647: Novus Biologicals #NBP2-43704AF647) 20 ul FACS bf+0.8 ul hlgG+0.04 ul MX-1. Spin 1000 rpm for 1 min, mix on shaker for 30se and the samples were incubated at RT in the dark for 45 min followed by washing 2× FACS buffer (spin @2300 rpm×5 min after perm). Resuspend 20 ul (35 uL total per well) of FACS buffer and cover with foil and place in 4° C. to read the following day. Plates were read on iQuePlus. The results were loaded into toolset and IC50 curves are generated in curve master. The y-axis 100% is set to 1 uM of resiquimod.

Drawing on US20230041738A1, “1H-PYRAZOLO[4,3-d]PYRIMIDINE COMPOUNDS AS TOLL-LIKE RECEPTOR 7 (TLR7) AGONISTS” (BRISTOL-MYERS SQUIBB COMPANY, priority 2020, published 2023), this text covers EC50 for 13 compounds.

Usually EC50 stands for the concentration at which the effect is half-maximal. A higher EC50 goes with a need for much substance.

In the case of `CCC[C@@H](CCO)Nc1nc(N)nc2cnn(Cc3ccc(CN4C[C@H]5C[C@@H]4CN5C)cc3OC)c12` [Compound 121, (3S)-3-({5-amino-1-[(2-methoxy-4-{[(1R,4R)-5-methyl-2,5-diaza-bicyclo[2.2.1]heptan-2-yl]methyl}-phenyl)methyl]-1H-pyrazolo[4,3-d]pyrimidin-7-yl}amino)hexan-1-ol], the EC50 on human TLR7 turned out to be 22.1 nM; in the experiment with CD69, 1.3 nM.
Take `CCC[C@@H](CCO)Nc1nc(N)nc2cnn(Cc3ccc(CN4C[C@H]5CN(C)C[C@H]5C4)cc3OC)c12` [Compound 122, (3S)-3-({1-[(4-{[(3aR,6aS)-5-methyl-octahydropyrrolo[3,4-c]pyrrol-2-yl]methyl}-2-methoxyphenyl)methyl]-5-amino-1H-pyrazolo[4,3-d]pyrimidin-7-yl}amino)hexan-1-ol]: the EC50 on human TLR7 was found to be 7.2 nM; in the experiment with CD69 it was 0.7 nM.
Turning to `CCCCNc1nc(N)nc2cnn(Cc3ccc(C(=O)N4C[C@H]5CNC[C@H]5C4)cc3OC(F)F)c12` [Compound 123, 1-({4-[(3aR,6aS)-octahydro-pyrrolo[3,4-c]pyrrole-2-carbonyl]-2-(difluoromethoxy)phenyl}methyl)-N7-butyl-1H-pyrazolo[4,3-d]pyrimidine-5,7-diamine], the EC50 turned out to be 2240 nM on human TLR7 and 482 nM with CD69.
As to `COc1cc(CN2C[C@@H]3C[C@H]2CO3)ccc1Cn1ncc2nc(N)nc(NCc3cc(C)on3)c21` [Compound 127, 1-[(2-methoxy-4-{[(1S,4S)-2-oxa-5-azabicyclo[2.2.1]heptan-5-yl]methyl}phenyl)methyl]-N7-[(5-methyl-1,2-oxazol-3-yl)methyl]-1H-pyrazolo[4,3-d]pyrimidine-5,7-diamine], the EC50 was 682 nM on human TLR7 and 16.7 nM in the experiment on CD69.
Regarding `COc1cc(CN2C[C@H]3C[C@@H]2CN3C)ccc1Cn1nc(C)c2nc(N)nc(NCc3cc(C)on3)c21` [Compound 128, 1-[(2-methoxy-4-{[(1R,4R)-5-methyl-2,5-diazabicyclo[2.2.1]-heptan-2-yl]methyl}phenyl)-methyl]-3-methyl-N7-[(5-methyl-1,2-oxazol-3-yl)methyl]-1H-pyra-zolo[4,3-d]pyrimidine-5,7-diamine], the figures for the EC50 at human TLR7 and in the experiment with CD69 were 74.4 nM and 28 nM, respectively.
The like results for `COc1cc(CN2C[C@@H]3C[C@H]2CN3)ccc1Cn1ncc2nc(N)nc(NCc3noc(C)n3)c21` [Compound 129, 1-[(4-{[(1S,4S)-2,5-diaza-bicyclo[2.2.1]heptan-2-yl]methyl}-2-methoxyphenyl)methyl]-N7-[(5-methyl-1,2,4-oxadiazol-3-yl)methyl]-1H-pyrazolo[4,3-d]pyri-midine-5,7-diamine] were, in that order, 323 nM and 804 nM.
For the compound `COc1cc(CN2C[C@@H]3C[C@H]2CN3C)ccc1Cn1ncc2nc(N)nc(NCc3noc(C)n3)c21` [Compound 130, 1-[(2-methoxy-4-{[(1S,4S)-5-methyl-2,5-diazabicyclo[2.2.1]-heptan-2-yl]methyl}phenyl)methyl]-N7-[(5-methyl-1,2,4-oxa-diazol-3-yl)methyl]-1H-pyrazolo[4,3-d]pyrimidine-5,7-diamine], the EC50 on human TLR7 was 135 nM; in the experiment on CD69 it was 74.3 nM.
Turning to `CCC[C@@H](CCO)Nc1nc(N)nc2cnn(Cc3cnc(CN4C[C@@H]5C[C@H]4CN5C)cc3OC)c12` [Compound 131, (3S)-3-({5-amino-1-[(4-methoxy-6-{[(1S,4S)-5-methyl-2,5-diaza-bicyclo[2.2.1]heptan-2-yl]methyl}pyridin-3-yl)methyl]-1H-pyrazolo[4,3-d]pyrimidin-7-yl}amino)hexan-1-ol], the EC50 on human TLR7 turned out to be 333 nM; in the experiment with CD69, 11.7 nM.
The like results for `CCC[C@@H](CCO)Nc1nc(N)nc2cnn(Cc3cnc(CN4C[C@H]5CN(C)C[C@H]5C4)cc3OC)c12` [Compound 132, (3S)-3-({1-[(6-{[(3aR,6aS)-5-methyl-octahydropyrrolo[3,4-c]pyrrol-2-yl]methyl}-4-methoxypyridin-3-yl)methyl]-5-amino-1H-pyrazolo [4,3-d]pyrimidin-7-yl}amino)hexan-1-ol] were, in that order, 65.9 nM and 2.2 nM.
The like results for `CCC[C@@H](CCO)Nc1nc(N)nc2cnn(Cc3cnc(CN4C[C@H]5CNC[C@H]5C4)cc3OC)c12` [Compound 133, (3S)-3-({1-[(6-{[(3aR,6aS)-octa-hydropyrrolo[3,4-c]pyrrol-2-yl]methyl}-4-methoxypyridin-3-yl)methyl]-5-amino-1H-pyrazolo[4,3-d]pyrimidin-7-yl}amino)hexan-1-ol] were, in that order, 89.9 nM and 2.8 nM.
The like results for `CCC[C@@H](CCO)Nc1nc(N)nc2cnn(Cc3cnc(CN4C[C@@H]5C[C@H]4CN5)cc3OC)c12` [Compound 134, (3S)-3-({5-amino-1-[(6-{[(1S,4S)-2,5-diazabicyclo[2.2.1]heptan-2-yl]methyl}-4-methoxypyridin-3-yl)methyl]-1H-pyrazolo[4,3-d]pyrimidin-7-yl}amino)hexan-1-ol] were, in that order, 354 nM and 22.4 nM.
Take `CCC[C@@H](CCO)Nc1nc(N)nc2cnn(Cc3ncc(CN4C[C@@H]5C[C@H]4CN5CCO)cc3OC)c12` [Compound 135, (3S)-3-({5-amino-1-[(5-{[(1S,4S)-5-(2-hydroxyethyl)-2,5-diaza-bicyclo[2.2.1]heptan-2-yl]methyl}-3-methoxypyridin-2-yl)methyl]-1H-pyrazolo[4,3-d]pyrimidin-7-yl}amino)hexan-1-ol]: the results for the EC50 at human TLR7 and in the experiment on CD69 were 297 nM and 12.2 nM, respectively.
Regarding `CCCCNc1nc(N)nc2cnn(Cc3ccc(CN4C[C@H]5CNC[C@H]5C4)cc3OC)c12` [Compound 136, 1-[(4-{[(3aR,6aS)-octahydro-pyrrolo[3,4-c]pyrrol-2-yl]methyl}-2-methoxyphenyl)methyl]-N7-butyl-1H-pyrazolo[4,3-d]pyrimidine-5,7-diamine], the EC50 at human TLR7 came to 62.2 nM; with CD69, 1.3 nM.
